From paper PMC7555970, “Design, Synthesis and Biological Evaluation of Biphenylglyoxamide-Based Small Molecular Antimicrobial Peptide Mimics as Antibacterial Agents” (International Journal of Molecular Sciences, 2020)
Converted amounts (≈) assume the structure as drawn.

System: S. aureus (SA38)
Experiment: Minimum inhibitory concentration (MIC) assay against S. aureus
Format: cell-based, Staphylococcus aureus
Conditions: not given
Experimental: The antimicrobial activity of the compounds was evaluated by MIC assay using the procedure described by Clinical and Laboratory Standards Institute (CLSI). A single colony of bacteria was cultured overnight in trypticase soy broth (TSB; Oxoid, Basingstoke, UK) at 37 °C with shaking. The resulting bacterial culture was collected by centrifugation and resuspended in TSB twice. The optical density (OD) of the resulting culture was adjusted to OD660 = 0.1 in TSB (which is equivalent to 10^8 colony forming unit (CFU)/mL bacteria). It was further diluted to 10^6 CFU/mL in TSB. 100 µL of the bacterial solution was then added to wells of a 96-well plate (Costar; Sigma-Aldrich, St Louis, MO, USA) containing 100 µL serially diluted peptide mimic, with final concentration ranging from 1 to 250 µM. Wells with bacteria but no compound were used as negative control while wells with only media were set as blank. The plates were then wrapped with parafilm to prevent evaporation and incubated with shaking at 120 rpm at 37 °C for 18–24 h, and the data were recorded by measuring the OD value at 660 nm using a FLUOstar Omega (BMG Labtech, Mornington, Victoria, Australia) microplate reader. […] Each experiment was performed in triplicate and was repeated in three independent experiments.

SMILES | MIC [µM]
CCCCCCCCS(=O)(=O)Nc1ccc(-c2ccc(Cl)cc2)cc1C(=O)C(=O)NCCCN(C)C [Compound 11c, 2-(4’-Chloro-4-(octylsulfonamido)-[1,1’-biphenyl]-3-yl)-N-(3-(dimethylamino)propyl)-2-oxoacetamide] | 16 (≈ 8.58 µg/mL)
CCCCCCCCS(=O)(=O)Nc1ccc(-c2ccc3ccccc3c2)cc1C(=O)C(=O)NCCCN(C)C [Compound 11d, N-(3-(Dimethylamino)propyl)-2-(5-(naphthalen-2-yl)-2-(octylsulfonamido)phenyl)-2-oxoacetamide] | 16 (≈ 8.83 µg/mL)
CCCCCCCCS(=O)(=O)Nc1ccc(CCCC)cc1C(=O)C(=O)NCCCN(C)C [Compound 11e, 2-(5-Butyl-2-(octylsulfonamido)phenyl)-N-(3-(dimethylamino)propyl)-2-oxoacetamide] | 63 (≈ 30.3 µg/mL)

Other lines, results leading:

MIC [µM] | SMILES
16 (≈ 8.31 µg/mL) | CCCCCCCCS(=O)(=O)Nc1ccc(-c2ccc(F)cc2)cc1C(=O)C(=O)NCCCN(C)C [Compound 11b, N-(3-(Dimethylamino)propyl)-2-(4’-fluoro-4-(octylsulfonamido)-[1,1’-biphenyl]-3-yl)-2-oxoacetamide]
> 250 | CCCCS(=O)(=O)Nc1ccc(-c2ccccc2)cc1C(=O)C(=O)NCCCN(C)C.Cl [Compound 14a, 3-(2-(4-(Butylsulfonamido)-[1,1’-biphenyl]-3-yl)-2-oxoacetamido)-N,N-dimethylpropan-1-aminium chloride]
> 250 | CN(C)CCCNC(=O)C(=O)c1cc(-c2ccccc2)ccc1NC(=O)c1ccc2ccccc2c1.Cl [Compound 26, 3-(2-(4-(2-Naphthamido)-[1,1’-biphenyl]-3-yl)-2-oxoacetamido)-N,N-dimethylpropan-1-aminium chloride]

Same assay, conditions: Staphylococcus aureus

MIC [µM] | SMILES
> 250 | CCCCS(=O)(=O)Nc1ccc(-c2ccccc2)cc1C(=O)C(=O)NCCCN(C)C [Compound 12a, 2-(4-(Butylsulfonamido)-[1,1’-biphenyl]-3-yl)-N-(3-(dimethylamino)propyl)-2-oxoacetamide]
16 | CCCCCCCCS(=O)(=O)Nc1ccc(-c2ccc(F)cc2)cc1C(=O)C(=O)NCCCN(C)C [Compound 13b, 3-(2-(4’-Fluoro-4-(octylsulfonamido)-[1,1’-biphenyl]-3-yl)-2-oxoacetamido)-N,N-dimethylpropan-1-aminium chloride]
> 250 | CCCCS(=O)(=O)Nc1ccc(-c2ccccc2)cc1C(=O)C(=O)NCCC[N+](C)(C)C [Compound 16a, 3-(2-(4-(Butylsulfonamido)-[1,1’-biphenyl]-3-yl)-2-oxoacetamido)-N,N,N-trimethylpropan-1-aminium iodide]
32 | C[N+](C)(C)CCCNC(=O)C(=O)c1cc(-c2ccccc2)ccc1NC(=O)c1ccc2ccccc2c1 [Compound 27, 3-(2-(4-(2-Naphthamido)-[1,1’-biphenyl]-3-yl)-2-oxoacetamido)-N,N,N-trimethylpropan-1-aminium iodide]
